The source made the active and inactive calls. The rule behind the calls is not given here.
Columns and labels:
Plasmodium falciparum [1] = test: Antiplasmodial activity against chloroquine-sensitive erythrocytic stage Plasmodium falciparum 3D7 assessed as inhibition of parasite growth incubated for 3 days by HRP2-ELISA; format: functional, organism-based; conditions: 3D7, 72 h
Plasmodium falciparum [2] = test: Antiplasmodial activity against chloroquine-resistant erythrocytic stage Plasmodium falciparum Dd2 assessed as inhibition of parasite growth incubated for 3 days by HRP2-ELISA; format: functional, organism-based; conditions: Dd2, 72 h
HepG2 = test: Cytotoxicity against human HepG2 cells assessed as cell growth inhibition incubated for 1 day by neutral red assay; format: functional, cell-based; conditions: HepG2, 24 h
[3] = Selectivity index, ratio of IC50 for human HepG2 cells to IC50 for […] erythrocytic stage Plasmodium falciparum 3D7; format: toxicity; conditions: read-out: Selectivity Index
Plasmodium berghei = test: Antiplasmodial activity against hepatic stage Plasmodium berghei infected in Huh-7 cells assessed as cell viability incubated for 1 hrs by bioluminescence assay; format: functional, organism-based

`O=C(/C=C/c1ccc(C(F)(F)F)cc1)NCc1nccc2c1[nH]c1ccccc12` gave an IC50 (Plasmodium falciparum [1]) greater than 55.6 µM and an IC50 (Plasmodium falciparum [2]) greater than 55.6 µM.
Work on `Cc1nccc2c1[nH]c1ccc(OCc3cn(C/C=C/c4ccc(Cl)cc4)nn3)cc12` yielded an IC50 (HepG2) of 3.95 µM, an IC50 (Plasmodium falciparum [1]) of 0.57 µM and a selectivity ratio [3] of 6.93. The Activity (Plasmodium berghei) was “Active” and the IC50 (Plasmodium falciparum [2]) was 0.95 µM.
With `O=C(/C=C/c1cccc(F)c1)OCc1cn(Cc2nccc3c2[nH]c2ccccc23)nn1` the IC50 (Plasmodium falciparum [1]) was greater than 17.3 µM and the IC50 (Plasmodium falciparum [2]) was greater than 20.1 µM.
In the case of `COc1ccc(/C=C/C(=O)NCCOc2ccc3[nH]c4c(C)nccc4c3c2)cc1`, the IC50 (HepG2) is reported as greater than 250 µM, the IC50 (Plasmodium falciparum [1]) is reported as 1.17 µM and the selectivity ratio [3] is reported as greater than 214. For the same molecule, the Activity (Plasmodium berghei) was “Active” and the IC50 (Plasmodium falciparum [2]) was 2.86 µM.
In the case of `Cc1nc(Cn2cc(COC(=O)/C=C/c3ccccc3)nn2)cc2c1[nH]c1ccccc12`, the IC50 (Plasmodium falciparum [1]) is reported as greater than 20 µM, the Activity (Plasmodium berghei) is reported as “Active” and the IC50 (Plasmodium falciparum [2]) is reported as greater than 27.8 µM.
Work on `Cc1nc(Cn2cc(COC(=O)/C=C/c3cccc(Br)c3)nn2)cc2c1[nH]c1ccccc12` yielded an IC50 (HepG2) of 110 µM, an IC50 (Plasmodium falciparum [1]) of 16.4 µM and a selectivity ratio [3] of 6.71. The Activity (Plasmodium berghei) was “Active” and the IC50 (Plasmodium falciparum [2]) was 11.1 µM.
With `Cc1nccc2c1[nH]c1ccc(OCCNC(=O)/C=C/c3ccc(F)cc3)cc12` the IC50 (HepG2) was greater than 250 µM, the IC50 (Plasmodium falciparum [1]) was 0.95 µM and the selectivity ratio [3] was greater than 263. The Activity (Plasmodium berghei) was “Active” and the IC50 (Plasmodium falciparum [2]) was 1.67 µM.
In the case of `O=C(/C=C/c1cccc(Br)c1)NCc1nccc2c1[nH]c1ccccc12`, the IC50 (Plasmodium falciparum [1]) is reported as greater than 27.8 µM and the IC50 (Plasmodium falciparum [2]) is reported as greater than 27.8 µM.
With `COc1ccc(/C=C/Cn2cc(Cn3c4ccccc4c4cc(CO)nc(C)c43)nn2)cc1` the IC50 (Plasmodium falciparum [1]) was 18.2 µM, the Activity (Plasmodium berghei) was “Active” and the IC50 (Plasmodium falciparum [2]) was greater than 16.9 µM.
With `O=C(/C=C/c1ccc(Cl)cc1)OCc1cn(Cc2nccc3c2[nH]c2ccccc23)nn1` the IC50 (Plasmodium falciparum [1]) was greater than 55.6 µM and the IC50 (Plasmodium falciparum [2]) was greater than 55.6 µM.
With `O=C(/C=C/c1cccc(C(F)(F)F)c1)NCc1nccc2c1[nH]c1ccccc12` the IC50 (Plasmodium falciparum [1]) was greater than 27.8 µM and the IC50 (Plasmodium falciparum [2]) was greater than 27.8 µM.
With `Cc1nc(Cn2cc(COC(=O)/C=C/c3cccc(F)c3)nn2)cc2c1[nH]c1ccccc12` the IC50 (Plasmodium falciparum [1]) was greater than 27.8 µM, the Activity (Plasmodium berghei) was “Active” and the IC50 (Plasmodium falciparum [2]) was greater than 27.8 µM.
Molecule `Cc1nc(CNC(=O)/C=C/c2cccc(Br)c2)cc2c1[nH]c1ccccc12` has an IC50 (HepG2) of 9.64 µM, an IC50 (Plasmodium falciparum [1]) of 3.23 µM and a selectivity ratio [3] of 2.98. For the same molecule, the Activity (Plasmodium berghei) was “Active” and the IC50 (Plasmodium falciparum [2]) was 1.48 µM.
`Cc1nccc2c1[nH]c1ccc(OCCNC(=O)/C=C/c3cccc(C(F)(F)F)c3)cc12` gave an IC50 (HepG2) of 6.14 µM, an IC50 (Plasmodium falciparum [1]) of 0.12 µM and a selectivity ratio [3] of 51.2. The Activity (Plasmodium berghei) was “Active” and the IC50 (Plasmodium falciparum [2]) was 0.32 µM.
`Cc1nccc2c1[nH]c1ccc(OCCNC(=O)/C=C/c3ccccc3)cc12` showed an IC50 (HepG2) of 12 µM, an IC50 (Plasmodium falciparum [1]) of 1.55 µM and a selectivity ratio [3] of 7.75. For the same molecule, the Activity (Plasmodium berghei) was “Active” and the IC50 (Plasmodium falciparum [2]) was 2.47 µM.
With `COc1ccc(/C=C/C(=O)OCc2cn(Cc3nccc4c3[nH]c3ccccc34)nn2)cc1` the IC50 (Plasmodium falciparum [1]) was greater than 55.6 µM and the IC50 (Plasmodium falciparum [2]) was 39.2 µM.
Work on `Cc1nccc2c1[nH]c1ccc(OCc3cn(C/C=C/c4cccc(F)c4)nn3)cc12` yielded an IC50 (HepG2) of 10.5 µM, an IC50 (Plasmodium falciparum [1]) of 0.55 µM and a selectivity ratio [3] of 19.1. The Activity (Plasmodium berghei) was “Active” and the IC50 (Plasmodium falciparum [2]) was 2.28 µM.
`Cc1nc(CNC(=O)/C=C/c2ccc(Cl)cc2)cc2c1[nH]c1ccccc12` showed an IC50 (HepG2) of 11.3 µM, an IC50 (Plasmodium falciparum [1]) of 2.92 µM and a selectivity ratio [3] of 3.88. For the same molecule, the Activity (Plasmodium berghei) was “Active” and the IC50 (Plasmodium falciparum [2]) was 8.38 µM.
`Cc1nccc2c1[nH]c1ccc(OCc3cn(C/C=C/c4ccccc4)nn3)cc12` gave an IC50 (HepG2) of 10.1 µM, an IC50 (Plasmodium falciparum [1]) of 0.61 µM and a selectivity ratio [3] of 16.6. For the same molecule, the Activity (Plasmodium berghei) was “Active” and the IC50 (Plasmodium falciparum [2]) was 2.12 µM.
`O=C(/C=C/c1ccccc1)OCc1cn(Cc2nccc3c2[nH]c2ccccc23)nn1` showed an IC50 (Plasmodium falciparum [1]) greater than 27.8 µM and an IC50 (Plasmodium falciparum [2]) greater than 20.2 µM.
With `COc1ccc(/C=C/C(=O)NCc2nccc3c2[nH]c2ccccc23)cc1` the IC50 (Plasmodium falciparum [1]) was greater than 27.8 µM and the IC50 (Plasmodium falciparum [2]) was greater than 27.8 µM.
`Cc1nc(CNC(=O)/C=C/c2cccc(F)c2)cc2c1[nH]c1ccccc12` showed an IC50 (HepG2) of 15.8 µM, an IC50 (Plasmodium falciparum [1]) of 5.74 µM and a selectivity ratio [3] of 2.76. The Activity (Plasmodium berghei) was “Active” and the IC50 (Plasmodium falciparum [2]) was 12.7 µM.
For `Cc1nccc2c1[nH]c1ccc(OCCNC(=O)/C=C/c3ccc(Cl)cc3)cc12`, the IC50 (HepG2) was greater than 250 µM, the IC50 (Plasmodium falciparum [1]) was 0.36 µM and the selectivity ratio [3] was greater than 694. For the same molecule, the Activity (Plasmodium berghei) was “Active” and the IC50 (Plasmodium falciparum [2]) was 0.92 µM.

— ChEMBL document CHEMBL4828716, “Further investigation of harmicines as novel antiplasmodial agents: Synthesis, structure-activity relationship and insight into the mechanism of action” (Eur J Med Chem, 2021)
